Measured values: PubChem BioAssay AID179 (DTP/NCI, 2004)
pEC50, pIC50: −log10 of the molar value. The source made the active and inactive calls.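 Rule for the calls: active = compounds giving half or more protection of infected cells from virus-caused growth loss, again on retest; inactive = the rest.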 Where a SMILES comes first, the peptide text is derived from it. The star is where a group is joined. Fmoc = O=C(OCC1c2ccccc2-c2ccccc21)*; Boc = CC(C)(C)OC(=O)*

System: CEM cells HIV-1 protection, formazan growth assay
Assay: NCI AIDS Antiviral Assay
Settings: for pIC50: measured here: growth of uninfected CEM cells
Method in brief: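 Protection of CEM cells against HIV-1 measured as cell growth via soluble formazan read-out, with five concentrations tested on both infected and uninfected cells; failure to protect may reflect toxicity.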

`CC(C)=C[C@@H]1C[C@H](n2cc(C)c(=O)[nH]c2=O)ON1CCO` gave a pEC50 of less than 3.70 and a pIC50 of less than 3.70.
For `CN(C)CCNC(c1ccccc1)C(O)c1ccccc1` (centres undefined), the outcome was “inactive”.
`COc1ccc(/C(C#N)=C(/N)SCc2ccccc2Cl)cc1` was tested, and the outcome was “inactive”.
`CC1C(=O)OC2C=CC3(C)C(=O)OC4OC5(c6ccoc6)CC1(O)C2(C)C43O5` (centres undefined) showed a pEC50 of less than 3.70 and a pIC50 of less than 3.70.
Compound `Cc1cccc2c1CC(C1OC(=O)c3c(C)cccc31)C2=O` (centres undefined) has a pEC50 of less than 3.70 and a pIC50 of 3.92.
`Nc1cc(Cl)cc(Cl)c1O` was tested, and the pEC50 was less than 3.79 and the pIC50 was 3.92.
With `Cc1cc2nc3c(C(OC4OC(CO)C(O)C(O)C4O)C(O)CO)nn(-c4ccc(F)cc4)c3nc2cc1C` (centres undefined) the outcome was “inactive”.
`CCc1cccc(CC)c1NC(=S)N/C=C(\C#N)S(=O)(=O)c1ccc(C)cc1` gave a pEC50 of less than 3.70 and a pIC50 of less than 3.70.
Work on `O=C1C=C(Nc2ccc(Br)cc2)c2ccccc2C1=O` yielded a pEC50 of less than 5.36 and a pIC50 of less than 5.36.
In the case of `O=C(NC(=S)Nc1ccccn1)c1ccccc1`, the pEC50 was less than 3.70 and the pIC50 was 3.87.
Work on `COc1ccc(/C=C\c2cc(OC)c(OC)c(OC)c2)cc1OC(=O)C(N)CCC(=O)O` (centres undefined) yielded a pEC50 of less than 3.35.
`O=c1c2ccccc2nc(-c2ccccc2Cl)n1NC1OC(CO)C(O)C(O)C1O` (centres undefined) was tested, and the outcome was “inactive”.
With `CC1(C)OP(=O)(c2ccccc2)C=C1Sc1ccc([N+](=O)[O-])cc1[N+](=O)[O-]` (centres undefined) the pEC50 was 4.35 and the pIC50 was 3.98.
In the case of `CC(C)=CC(C(O)c1ccccc1)S(=O)(=O)c1nccn1C` (centres undefined), the pEC50 was less than 3.39 and the pIC50 was less than 3.39.
For `C[C@]12CCCC(=O)C1(O)C[C@H](C(=O)O)CC2` (some centres undefined), the outcome was “inactive”.
For `CCOC(=O)C(C(=O)OCC)=C1SC(=Nc2ccccc2)C(=Nc2ccccc2)N1c1ccccc1`, the pEC50 was less than 3.70 and the pIC50 was 4.15.
Compound `CC(C)(C)OC(=O)NCCCCC(NC(=O)C(Cc1c[nH]c2ccccc12)NC(=O)OCC1c2ccccc2-c2ccccc21)C(=O)O` (centres undefined) (Fmoc-Trp-Lys(Boc)-OH; configuration not given here) has a pEC50 of less than 3.70 and a pIC50 of 3.99.
For `Cc1c(C)c2ccc3oc4ccccc4c3c2oc1=O`, the pEC50 was less than 4.42 and the pIC50 was less than 4.42.
`NC(=S)N/N=C1/CN(c2ccc(Cl)c(Cl)c2)CC(=O)C1c1nc2ccccc2s1` (centres undefined) was tested, and the outcome was “inactive”.
`CC(=O)ONC(=O)CSc1nn2cc(-c3ccccc3)nc2s1` was tested, and the pEC50 was 3.73 and the pIC50 was less than 3.70.
With `CCCCOCOc1ccccc1P1(=O)COc2ccccc2OC1` the pEC50 was less than 3.70 and the pIC50 was 4.35.
`COc1cc2c3cc1Oc1c(O)c(OC)cc4c1C(Cc1ccc(O)c(c1)Oc1ccc(cc1)CC3N(C)CC2)N(C)CC4` (centres undefined) was tested, and the outcome was “inactive”.
`N/C(=N\N=C(/N)C(F)(F)F)C(F)(F)F` showed a pEC50 of less than 3.70 and a pIC50 of less than 3.70.
In the case of `O=C1c2ccccc2C(c2ccccc2)C1c1ccccc1` (centres undefined), the pEC50 was less than 3.70 and the pIC50 was 4.71.
Work on `CCCNC(=O)c1nc(SC)sc1NC(=O)c1ccccc1` yielded a pEC50 of less than 3.70 and a pIC50 of less than 3.70.
`CNc1nc(N)[nH]c(=O)c1N=O` was tested, and the outcome was “inactive”.
In the case of `Cc1cc(N(C)c2ccccc2)nc(N(C)c2ccccc2)n1`, the pEC50 was less than 3.70 and the pIC50 was 4.22.
For `O=C(Nc1ccccc1)c1ccccc1[Se][Se]c1ccccc1C(=O)Nc1ccccc1`, the pEC50 was 5.27 and the pIC50 was 5.02.
In the case of `CC(=O)C1CC[C@@H](C)[C@@H]2CC[C@@]3(C)OO[C@@]12[C@H](OC=O)O3` (some centres undefined), the pEC50 was less than 3.70 and the pIC50 was 4.56.
Work on `COC1CC(OC2C(C)OC(OC3C(C)OC(OC4C(C)OC(O[C@H]5CC[C@@]6(C)C(=CC[C@]7(O)[C@@H]6C[C@@H](OC(=O)/C=C/c6ccccc6)[C@@]6(C)[C@]7(O)CC[C@@]6(O)C(C)=O)C5)CC4OC)CC3OC)CC2OC)OC(C)C1O` (some centres undefined) yielded a pEC50 of less than 3.70 and a pIC50 of 4.66.
Compound `CCC([NH-])C(=O)O.CCC([NH-])C(=O)O.[Cu+2]` (centres undefined) has a pEC50 of less than 3.70 and a pIC50 of 4.74.
In the case of `CC(C)(C)OC/C=C1\C(=O)O[C@H]2C[C@@H](O[Si](C)(C)C(C)(C)C)C[C@@H]12`, the pEC50 was less than 3.70 and the pIC50 was 4.40.
With `O=C1c2ccccc2C(=O)c2sc(Nc3cccc(Cl)c3)nc21` the pEC50 was less than 5.23 and the pIC50 was 5.47.
Work on `OC(O)(C(F)(F)F)C(F)(F)F` yielded a pEC50 of less than 3.70 and a pIC50 of less than 3.70.
